Test results taken from patent US12344643B2, “Compositions and methods for inhibition of FOXP3” (The University of Chicago, priority 2016, dated 2025).
Ends that are not written are not given here.

Assays:
[1] = test system: FOXP3-DNA binding; assay: EMSA with FOXP3 reticulocyte lysate (IVTT) and IRDye700 DNA probe, unstapled peptides; assay type: biochemical; settings: peptides 50-200 μM, A′A1A2 probe
Description: FIG. 5A-C. Unstapled FOXP3 peptides are able to alter FOXP3-DNA binding at high concentrations. Preparation of FOXP3 proteins through In Vitro Transcription and Translation (IVTT) reticulocyte lysate: T7 DNA vectors (1 μg/25 μL) were incubated at 30° C. for 1.5 hr in reticulocyte lysate with T7 polymerase, amino acids and RNAsin per the manufacturer's protocol (TnT Coupled Reticulocyte Lysate System, Promega). IRDye700 labeled probe containing consensus sequence (A′A1A2; a DNA sequence previously published to bind FOXP3) for FOXP3 was incubated at room temperature for 15 mins with 2 μL FOXP3 reticulocyte lysate, in the presence of peptides (50-200 μM) using the Odyssey Infrared EMSA kit per manufacturer's protocol (Li-Cor). Reactions were then separated by electrophoresis on a 10% TBE gel and imaged using an Odyssey Imager (Li-Cor).

[2] = test system: DNA probe; assay: EMSA control, peptide alone with DNA probe (non-specific binding); settings: 50 μM peptide
Description: FIG. 9A-C. Electrophoretic mobility shift assays (EMSA). (A) SAHs block FOXP3 binding to cognate DNA; a comparison of stapled and unstapled peptides. EMSA with FOXP3ΔN incubated with increasing concentrations of different SAH-FOXP3 are shown. Labeled probe containing consensus sequence (A′GT25) for FOXP3 was incubated at room temperature for 15 mins with recombinant FOXP3ΔN and increasing concentrations of SAH peptide [3 μM to 25 μM]. The last lane in each set is 25 μM of peptide alone with DNA probe. […] IRDye700 labeled probe containing consensus sequence for NFAT was incubated at room temperature for 15 mins with 100 pmole recombinant NFAT-DBD and peptide or DMSO using the Odyssey Infrared EMSA kit per manufacturer's protocol (Li-Cor). Reactions were then separated by electrophoresis on a 10% TBE gel and imaged using an Odyssey Imager (Li-Cor).
To exclude non-specific binding to the negatively charged DNA probe, a liability of using charged peptides in EMSAs, SAH-FOXP3DDs were incubated with each probe at up to twice the highest concentration used. […] Next, SAH-FOXP3DDs were incubated with recombinant NFAT (NFAT DBDW400-W680) and the Il-2 reporter oligonucleotide ARRE2 element as a further test of specificity. SAH-FOXP3DDs were unable to inhibit NFAT:DNA binding, further validating on-target specificity of the peptides.

[3] = test system: regulatory T cells (Tregs); assay: In vitro Treg suppression assay (Tcon proliferation, flow cytometry); assay type: cell-based, mouse (C57BL/6 FOXP3IRES-GFP)
[4] = test system: Tregs; assay: Quantitative PCR of mRNA in treated Tregs; assay type: cell-based, mouse (C57BL/6 FOXP3IRES-GFP); settings: naïve Tregs with IL-2 and CD3/CD28 microbeads
Description: (§1) FIG. 12A-B. SAH-FOXP3DD peptides are able to alter cellular expression (protein and mRNA) of FOXP3 target genes. Conventional T cells (CD4+ CD25−) and regulatory T cells (CD25+ GFP+) were isolated from CD4+ cells enriched from spleen and draining lymph nodes of FOXP3-IRES-GFP. Tregs were treated at 1000 cells per μL with peptides in OptiMem for 2 hours before being quenched with completed advanced DMEM and then stimulated with CD3/CD28 beads. Gene expression was determined using qRT-PCR 4 hours after stimulation. Membrane (live cell) or internal (fixed cell) expression of proteins was determined using flow cytometry 16 hrs after stimulation.
(§2) Tregs and Tcons were stimulated from C57BL/6 FOXP3IRES-GFP with IL-2 and CD3/CD28 microbeads for seven days and treated them with a dose titration of SAH-FOXP3DD10, or unstapled control, and measured membrane expression of CD127 (IL7Ra). Tregs and Tcons normally downregulate CD127 mRNA expression following seven days of stimulation.

[5] = test system: Tregs; assay: Flow cytometry of protein expression in treated Tregs; assay type: cell-based, mouse (C57BL/6 FOXP3IRES-GFP); settings: dose titration
Description: as §1, §2

[6] = test system: FOXP3:NFAT1; assay: IL-2 promoter ARRE2 luciferase reporter, FOXP3 repression of NFAT1:AP1 transcription; assay type: cell-based, human; settings: HEK cells
Description: FIG. 2A-E. Design, biochemical characterization, and functional testing of SAH-FOXP3NFATs. (A) Design strategy for SAHs targeting the FOXP3:NFAT1 dimerization interface. (B) CD showing that i(i+4) and i(i+7) stapled SAH-FOXP3NFATs and their point mutant controls are helical in solution. […] (C&D) Dose dependent inhibition of FOXP3-mediated NFAT repression with 2.5 ng (D) and 10 ng (E) FOXP3 DNA. Point mutant controls have no effect thus confirming specificity of action.
Experiments were conducted during development of embodiments herein to design stabilized α-helices of the FOXP3:NFAT1 interface (SAH-FOXP3NFAT). Using a similar approach as above, stapled peptides based on a FOXP3 α-helix, which is responsible for NFAT1 binding (FIG. 2A), were designed. Non-natural amino acids were inserted in either the i,i+4 (SAHFOXP3NFAT(i,i+4)) or i,i+7(SAHFOXP3NFAT(i,i+7)) positions. Hydrocarbon stapling of the FOXP3NFAT peptides and point mutants similarly stabilizes their helicity (FIG. 2B). The peptides were tested for inhibition of FOXP3:NFAT1 binding. Co-expression of increasing amounts of FOXP3 DNA with constitutively active NFAT1 dose dependently represses NFAT1: AP1 transcriptional activity at an IL-2 promoter ARRE2 luciferase reporter element in transfected human embryonic kidney (HEK) cells (FIG. 2C). […] Confirming specificity of action, neither point mutant control SAH had any effect (FIG. 2E). […] Possibilities include differences in cellular penetrance, binding efficiency, or intracellular trafficking between the two SAHs.

[7] = molecular target: T1, recombinant LZCC protein (dimerized FOXP3) (Mus musculus, UniProt Q99JB6); assay: Chemical crosslinking (BS3 or DSS) of recombinant LZCC with SAH-FOXP3 peptides; assay type: biochemical; settings: 2 hours room temperature, 1 mM BS3 or DSS
T1 construct: the LZCC portion of FOXP3 (FOXP3 S189-K276); made in house
T1 sequence (Q99JB6 189-276): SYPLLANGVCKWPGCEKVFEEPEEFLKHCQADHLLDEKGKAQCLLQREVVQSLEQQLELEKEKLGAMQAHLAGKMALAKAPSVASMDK
Description: FIG. 8A-B. Chemical Crosslinking. SAH-FOXP3 peptides incubated with recombinant LZCC protein for 2 hours at room temperature in 1×PBS. 1 mM of the chemical crosslinker BS3 or DSS was added to each tube for 30 mins at room temperature. Samples were denatured and then separated by electrophoresis on a NuPage SDS 10/a Bis-Tris gel following the manufacturer's protocol (Invitrogen). Protein was imaged after staining the gel with coomassie on the Odyssey Imager. […] In some cases, SAH peptide crosslinks with monomeric FOXP3 alone

[8] = molecular target: T2, recombinant FOXP3 leucine zipper coiled-coiled (LZCC) domain (Mus musculus, UniProt Q99JB6); assay: Fluorescence polarization assay, FITC-peptide binding to LZCC; settings: 50 nM FITC-peptide, 1×PBS pH 8
T2 construct: the LZCC portion of FOXP3 (FOXP3 S189-K276); made in house
T2 sequence (Q99JB6 189-276): T1 sequence (Q99JB6 189-276)
Description: FIG. 7A-D. Fluorescence polarization assay to determine SAH-FOXP3 binding to recombinant FOXP3 leucine zipper coiled-coiled (LZCC) domain. (A) Serially diluted recombinant LZCC was incubated with 50 nM FITC-peptide in 1×PBS pH 8 for 5-10 mins and then fluorescent polarization was measured using a SpectraMax spectrometer. […] (B—C) Serially diluted recombinant LZCC (A) or FOXP3 ΔN (B) was incubated with 50 nM FITC-peptide in 1×PBS pH 8 for 5-10 mins followed by fluorescent polarization measurement using a SpectraMax spectrometer. (D) Shift of composite binding curves indicate increased affinity for the leucine zipper coiled-coiled (LZCC) domain and FOXP3ΔN.
A library of hydrocarbon stapled peptides were synthesized representing these templates (SAH-FOXP3DDs) that incorporated three different hydrocarbon staple positions along the solvent-exposed face so as to avoid disruption of critical contact points between ‘a’ and ‘d’ residues of the coiled-coil. Non-natural amino acids were inserted at positions i,i+7 so that the hydrocarbon staples face away from the dimerization interface (FIG. 1A). […] Both native and stapled FOXP3DD peptides were α-helical in solution at a wide range of temperatures (20-50° C.) (FIG. 1B). To achieve solubility of the unstapled constructs for CD evaluation, 20% acetonitrile:water solution was used. […]

LLDEKGRAQCLLQREMVQSLEQQLVLEKEK (LLDEKGRAQCLLQREMVQSLEQQLVLEKEK-NH2) [223-252, free N-term/-Am; hFOXP3 (223-252); unstapled; B4 has the same range]
dissociation of FOXP3 from DNA (EMSA) [1]: dissociate FOXP3 from DNA

HLLDEKGRAQCLLQREMVQSLE8QLVLEKXKLSAMQAHLAG [SAH3, Ac-/-Am; hFOXP3 (222-262); staple (Q244, E251)C]
binding of peptide to DNA probe [2]: minimal binding

RAQCLLQREMVQSLE8QLVLEKXKLSAMQAH [SAH-FOXP3DD10, Ac-/-Am; hFOXP3 (229-259); staple (Q244, E251)C]
degree of Treg inhibition ([3]; in vitro expanded Tregs): lower, but still present
ability of treated Tregs to inhibit Tcon proliferation ([3]; naïve Tregs pretreated for 2 hours): unable to inhibit the proliferation
FOXP3 mRNA expression [4]: correlative increase
IL-2 mRNA expression [4]: correlative increase
binding of peptide to DNA probe [2]: minimal binding
expression of CD44 ([5]; Tregs stimulated seven days): dose dependent decrease
expression of CD69 ([5]; Tregs stimulated seven days): dose dependent decrease
membrane expression of CD127 (IL7Ra) ([5]; Tregs stimulated with IL-2 and CD3/CD28 microbeads for seven days): dose dependent increase

QRTXNEIXHWFTRNFAFF [SAH-FOXP3NFAT(i,i+4), β-Ala/Ac; i,i+4 stapled FOXP3/NFAT peptide]
inhibition of FOXP3-mediated repression of NFAT1:AP1 luciferase activity ([6]; 2.5 ng FOXP3 DNA (low dose)): inhibited this FOXP3-mediated repression
inhibition of FOXP3-mediated repression of NFAT1:AP1 luciferase activity ([6]; 2.5 ng FOXP3 DNA (low dose), listed as FOXP3NFAT(i,i+4)): fully inhibited
inhibition of FOXP3-mediated repression of NFAT1:AP1 luciferase activity ([6]; 10 ng FOXP3 DNA (excess)): inhibited this FOXP3-mediated repression
inhibition of FOXP3-mediated repression of NFAT1:AP1 luciferase activity ([6]; 10 ng FOXP3 DNA (excess), listed as FOXP3NFAT(i,i+4)): less able to inhibit

LLDEKGRAQCL8QREMVQXLEQQLVLEKEK [SAH9, Ac-/-Am; hFOXP3 (223-252); staple (L234, S241)B]
amount of dimerized FOXP3 protein after crosslinking [7]: modest decrease

SGSRAQCLLQREMVQSLEQQLVLEKEK (Ac-SGSRAQCLLQREMVQSLEQQLVLEKEK-NH2) [B2V2, Ac-/-Am; SGS hFOXP3 (229-252); unstapled native peptide]
binding to recombinant LZCC, in words [8]: much lower affinity

F8KHCQADXLLDEKGRAQCLLQREMVQSLEQQLVLEKEKL [SAH7, Ac-/-Am; hFOXP3 (214-253); staple (1215, H222)Z]
amount of dimerized FOXP3 protein after crosslinking [7]: modest decrease

QRTXNEIYHWXTRNFAFF [SAH-FOXP3NFAT(i,i+7), β-Ala/Ac; i,i+7 stapled FOXP3/NFAT peptide]
inhibition of FOXP3-mediated repression of NFAT1:AP1 luciferase activity ([6]; 2.5 ng FOXP3 DNA (low dose)): inhibited this FOXP3-mediated repression
inhibition of FOXP3-mediated repression of NFAT1:AP1 luciferase activity ([6]; 2.5 ng FOXP3 DNA (low dose), listed as FOXP3NFAT(I,i+7)): dose-responsively inhibited
inhibition of FOXP3-mediated repression of NFAT1:AP1 luciferase activity ([6]; 10 ng FOXP3 DNA (excess)): inhibited this FOXP3-mediated repression
inhibition of FOXP3-mediated repression of NFAT1:AP1 luciferase activity ([6]; 10 ng FOXP3 DNA (excess), listed as FOXP3NFAT(I,i+7)): dose-responsively inhibited

RAQCLLQREMVQSLEQQLVLEKEKLSAMQAH (Ac-RAQCLLQREMVQSLEQQLVLEKEKLSAMQAH-NH2) [229-259, Ac-/-Am; hFOXP3 (229-259); unstapled]
dissociation of FOXP3 from DNA (EMSA) [1]: dissociate FOXP3 from DNA

KGRAQCLLQREMVQSLE8QLVLEKXKLSAMQAH [SAH-FOXP3DD4, Ac-/-Am; hFOXP3 (227-259); staple (Q244, E251)C]
binding of peptide to DNA probe [2]: minimal binding

SGSGSRAQCLLQREMVQSLEQQLVLEKEK (Ac-SGSGSRAQCLLQREMVQSLEQQLVLEKEK-NH2) [B2V3, Ac-/-Am; SGSGS hFOXP3 (229-252); unstapled native peptide]
binding to recombinant LZCC, in words [8]: much lower affinity
